According to patent US11753407B2, “Compounds for treating spinal muscular atrophy” (PTC Therapeutics, Inc., priority 2012, dated 2023):

Columns and labels:
[1] = system: SMN2 minigene mRNA (SMN2-A minigene) in HEK293H cells; assay: SMN2 minigene mRNA splicing RT-qPCR assay in cultured cells; format: cell-based, human; conditions: Homo sapiens, HEK293-H; concentration increasing full length SMN2 mRNA 1.5-fold relative to vehicle-treated cells; HEK293H cells with SMN2-A minigene, 24 hours, 7-point concentration data; read-out: EC1.5x for production of full length SMN2 mRNA
Method in brief: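 Read-out: minigene-specific full-length (exon 7-included) SMN2 mRNA by one-step multiplex RT-qPCR, normalized to GAPDH and divided by vehicle-treated level. Stable SMN2-A minigene HEK293H cells, 24 h compound exposure, 7 concentrations in duplicate. EC1.5× = concentration raising FL mRNA 1.5-fold.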

[2] = system: Smn protein in SMA patient fibroblast cells (GM03813); assay: Smn protein assay in cultured cells (SMN HTRF); format: cell-based, human; conditions: SMA patient fibroblast cells, 48 hours; for maximum fold (Fold) increase of Smn protein: 7-point concentration data, fold relative to vehicle control; for EC1.5x for Smn protein expression: 7-point concentration curve, SMN HTRF, concentration producing 1.5 times Smn protein vs DMSO vehicle control
Method in brief: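 Read-out: HTRF 665/620 nm ratio, blank-subtracted as ΔF, then expressed as fold over DMSO vehicle. Fibroblasts from SMA patients were exposed to compounds for 48 h (7 points, 3.16-fold steps, triplicates). Values are EC1.5× and maximum fold Smn increase.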

| SMILES | melting point | EC (1.5-fold increase) [1] | maximum fold (Fold) increase of Smn protein [2] | EC1.5x for Smn protein expression [2] |
| --- | --- | --- | --- | --- |
| Cc1ccc(-c2cc(=O)n3cc(N4CCNCC4)ccc3n2)cc1 [Compound 63, 2-(4-methylphenyl)-7-(piperazin-1-yl)-4H-pyrido[1,2-a]pyrimidin-4-one] | 192 to 195 °C | 1 to 3 µM | ** (a fold increase between >1.2 and ≤1.35 is indicated by two stars (**)) |  |
| COc1cc(F)c(-c2cc(=O)n3cc(N4CCNCC4)ccc3n2)cc1OC [Compound 64, 2-(2-fluoro-4,5-dimethoxyphenyl)-7-(piperazin-1-yl)-4H-pyrido[1,2-a]pyrimidin-4-one] | 177 to 180 °C | 3 to 30 µM | ** (a fold increase between >1.2 and ≤1.35 is indicated by two stars (**)) |  |
| COc1cc(F)c(-c2cc(=O)n3cc(N4CCN[C@@H](C)C4)ccc3n2)cc1OC [Compound 65, 2-(2-fluoro-4,5-dimethoxyphenyl)-7-[(3S)-3-methylpiperazin-1-yl]-4H-pyrido[1,2-a]pyrimidin-4-one] | 167 to 170 °C | 3 to 30 µM | ** (a fold increase between >1.2 and ≤1.35 is indicated by two stars (**)) |  |
| COc1ccc(-c2cc(=O)n3cc(N4CC5CCC(C4)N5)ccc3n2)cc1OC [Compound 66, 7-(3,8-diazabicyclo[3.2.1]oct-3-yl)-2-(3,4-dimethoxyphenyl)-4H-pyrido[1,2-a]pyrimidin-4-one] | 158 to 161 °C | 0.3 to 1 µM | *** (a fold increase between >1.35 and ≤1.5 is indicated by three stars (***)) | * (An EC1.5× for Smn protein expression between >3 μM and ≤10 μM is indicated by one star (*)) |
| N#Cc1ccc(-c2cc(=O)n3cc(N4CCNCC4)ccc3n2)cc1 [Compound 73, 4-[4-oxo-7-(piperazin-1-yl)-4H-pyrido[1,2-a]pyrimidin-2-yl]benzonitrile] | 146 to 151 °C | 3 to 30 µM | ** (a fold increase between >1.2 and ≤1.35 is indicated by two stars (**)) |  |
| Cc1cn2cc(-c3cc(=O)n4cc(N5CCN[C@@H](C)C5)ccc4n3)nc2cn1 [Compound 75, 2-(6-methylimidazo[1,2-a]pyrazin-2-yl)-7-[(3S)-3-methylpiperazin-1-yl]-4H-pyrido[1,2-a]pyrimidin-4-one] | 235 to 238 °C | < 0.1 µM | ***** (a fold increase >1.65 is indicated by five stars (*****)) | **** (an EC1.5x≤0.3 μM is indicated by four stars (****)) |
| O=c1cc(-c2ccc(F)c(C(F)(F)F)c2)nc2ccc(N3CCNCC3)cn12 [Compound 77, 2-[4-fluoro-3-(trifluoromethyl)phenyl]-7-(piperazin-1-yl)-4H-pyrido[1,2-a]pyrimidin-4-one] | 214 to 217 °C | 0.3 to 1 µM | ** (a fold increase between >1.2 and ≤1.35 is indicated by two stars (**)) |  |
| COc1c(-c2cc(=O)n3cc(N4CCNCC4)ccc3n2)cccc1C(F)(F)F [Compound 78, 2-[2-methoxy-3-(trifluoromethyl)phenyl]-7-(piperazin-1-yl)-4H-pyrido[1,2-a]pyrimidin-4-one] | 194 to 200 °C | 1 to 3 µM | * (A maximum fold increase of ≤1.2 is indicated by one star (*)) |  |
| O=c1cc(-c2cc(F)cc(F)c2)nc2ccc(N3CCNCC3)cn12 [Compound 79, 2-(3,5-difluorophenyl)-7-(piperazin-1-yl)-4H-pyrido[1,2-a]pyrimidin-4-one] | 195 to 198 °C | 0.1 to 0.3 µM | **** (a fold increase between >1.5 and ≤1.65 is indicated by four stars (****)) | *** (an EC1.5× between >0.3 μM and ≤1 μM is indicated by three stars (***)) |
| O=c1cc(-c2cccc(OC(F)(F)F)c2)nc2ccc(N3CCNCC3)cn12 [Compound 80, 7-(piperazin-1-yl)-2-[3-(trifluoromethoxy)phenyl]-4H-pyrido[1,2-a]pyrimidin-4-one] | 140 to 143 °C | 1 to 3 µM | * (A maximum fold increase of ≤1.2 is indicated by one star (*)) |  |
| COc1ccc(-c2cc(=O)n3cc(N4CCNCC4)ccc3n2)cn1 [Compound 88, 2-(6-methoxypyridin-3-yl)-7-(piperazin-1-yl)-4H-pyrido[1,2-a]pyrimidin-4-one] | 173 to 178 °C | 1 to 3 µM | ** (a fold increase between >1.2 and ≤1.35 is indicated by two stars (**)) |  |
| COc1ccc(-c2cc(=O)n3cc(N4CCNCC4)ccc3n2)c(OC)c1 [Compound 89, 2-(2,4-dimethoxyphenyl)-7-(piperazin-1-yl)-4H-pyrido[1,2-a]pyrimidin-4-one] | 171 to 173 °C | 1 to 3 µM | *** (a fold increase between >1.35 and ≤1.5 is indicated by three stars (***)) |  |
| COc1ccc(-c2cc(=O)n3cc(N4CCN[C@@H](C)C4)ccc3n2)c(OC)c1 [Compound 90, 2-(2,4-dimethoxyphenyl)-7-[(3S)-3-methylpiperazin-1-yl]-4H-pyrido[1,2-a]pyrimidin-4-one] | 172 to 177 °C | 1 to 3 µM | *** (a fold increase between >1.35 and ≤1.5 is indicated by three stars (***)) | * (An EC1.5× for Smn protein expression between >3 μM and ≤10 μM is indicated by one star (*)) |

Second part, led by results:

| melting point | SMILES | EC (1.5-fold increase) [1] | maximum fold (Fold) increase of Smn protein [2] | EC1.5x for Smn protein expression [2] |
| --- | --- | --- | --- | --- |
| 177 to 181 °C | COc1ccc(-c2cc(=O)n3cc(N4CCNCC4)ccc3n2)cc1C(F)(F)F [Compound 67, 2-[4-methoxy-3-(trifluoromethyl)phenyl]-7-(piperazin-1-yl)-4H-pyrido[1,2-a]pyrimidin-4-one] | 0.1 to 0.3 µM | *** (a fold increase between >1.35 and ≤1.5 is indicated by three stars (***)) | *** (an EC1.5× between >0.3 μM and ≤1 μM is indicated by three stars (***)) |
| 205 to 212 °C | COc1ccc(-c2cc(=O)n3cc(N4CCN[C@H](C)C4)ccc3n2)cc1C(F)(F)F [Compound 68, 2-[4-methoxy-3-(trifluoromethyl)phenyl]-7-[(3R)-3-methylpiperazin-1-yl]-4H-pyrido[1,2-a]pyrimidin-4-one] | 0.1 to 0.3 µM | ** (a fold increase between >1.2 and ≤1.35 is indicated by two stars (**)) |  |
| 195 to 200 °C | COc1ccc(-c2cc(=O)n3cc(N4CCN[C@@H](C)C4)ccc3n2)cc1C(F)(F)F [Compound 69, 2-[4-methoxy-3-(trifluoromethyl)phenyl]-7-[(3S)-3-methylpiperazin-1-yl]-4H-pyrido[1,2-a]pyrimidin-4-one] | 0.3 to 1 µM | **** (a fold increase between >1.5 and ≤1.65 is indicated by four stars (****)) | *** (an EC1.5× between >0.3 μM and ≤1 μM is indicated by three stars (***)) |
| 176 to 178 °C | COc1ccc(-c2cc(=O)n3cc(N4CCN[C@@H](C)C4)ccc3n2)cc1OC(F)(F)F [Compound 83, 2-[4-methoxy-3-(trifluoromethoxy)phenyl]-7-[(3S)-3-methylpiperazin-1-yl]-4H-pyrido[1,2-a]pyrimidin-4-one] | 0.3 to 1 µM | * (A maximum fold increase of ≤1.2 is indicated by one star (*)) |  |
| 152 to 155 °C | C[C@H]1CN(c2ccc3nc(-c4ccc(O)c(OC(F)(F)F)c4)cc(=O)n3c2)CCN1 [Compound 84, 2-[4-hydroxy-3-(trifluoromethoxy)phenyl]-7-[(3S)-3-methylpiperazin-1-yl]-4H-pyrido[1,2-a]pyrimidin-4-one] | 1 to 3 µM | ***** (a fold increase >1.65 is indicated by five stars (*****)) | ** (an EC1.5× between >1 μM and ≤3 μM is indicated by two stars (**)) |
| 175 to 178 °C | COc1ccc(-c2cc(=O)n3cc(N4CCN[C@H](C)C4)ccc3n2)cc1F [Compound 86, 2-(3-fluoro-4-methoxyphenyl)-7-[(3R)-3-methylpiperazin-1-yl]-4H-pyrido[1,2-a]pyrimidin-4-one] | 0.1 to 0.3 µM | **** (a fold increase between >1.5 and ≤1.65 is indicated by four stars (****)) | **** (an EC1.5x≤0.3 μM is indicated by four stars (****)) |
| 175 to 178 °C | COc1ccc(-c2cc(=O)n3cc(N4CCN[C@@H](C)C4)ccc3n2)cc1F [Compound 87, 2-(3-fluoro-4-methoxyphenyl)-7-[(3S)-3-methylpiperazin-1-yl]-4H-pyrido[1,2-a]pyrimidin-4-one] | 0.1 to 0.3 µM | **** (a fold increase between >1.5 and ≤1.65 is indicated by four stars (****)) | *** (an EC1.5× between >0.3 μM and ≤1 μM is indicated by three stars (***)) |
